Values quoted from earlier work, collected in patent US7648982B2 (priority 2003, dated 2010).

Assays:
[1] = in vivo, iv
[2] = in vivo

## CN1CC[C@]23c4c5ccc(O)c4O[C@H]2[C@@H](O)C=C[C@H]3[C@H]1C5 [morphine]
[1]
  delay of peak drug effect from the time of injection: 10 to 15 min
[2]
  K10: Morphine_K10 = 0.07051
  K12: Morphine_K12 = 0.1273
  K13: Morphine_K13 = 0.01826
  K21: Morphine_K21 = 0.02596
  K31: Morphine_K31 = 0.001633
  Ke0: Morphine_Ke0 = 0.005
  V1: Morphine_V1 = 17.8
